For 85 molecules, EC50 results are on record in PubChem BioAssay AID489027 (Sanford-Burnham Center for Chemical Genomics, 2010).

This assay addresses UPR counterscreen luciferase reporter, luminescence. As to the kind of experiment: luciferase reporter activation, UPR counterscreen line – cell-based, luminescence, counter-screen for adaptive UPR activator project, dose response (AID 489027).

SMILES strings stand for the structures. The source made the active and inactive calls. The rule behind the calls is not given here.

`CC1CCCN(c2ccc(C(=O)NCc3cccs3)cn2)C1` (stereo not given): the EC50 was > 80 µM (inactive).

Turning to `CC1CCN(Cc2c(C(=O)N/N=C/c3ccc(C(C)C)cc3)nnn2-c2nonc2N)CC1`, the EC50 result was “inactive”.

As for `O=C(NCC1CCCO1)c1nn2c(C(F)(F)F)cc(-c3cc(Br)cs3)nc2c1Br` (stereo not given), the EC50 is > 80 µM (inactive).

Take `O=c1oc(CCCO)cc2ccc(/C=C/c3cccc([N+](=O)[O-])c3)cc12`: the EC50 is > 80 µM (inactive).

For the molecule `COc1ccc(N=c2oc3ccc(OC)cc3cc2-c2nc3ccccc3[nH]2)cc1`, the EC50 was 6.79 µM.

For the molecule `COC(=O)c1c(NC(=O)c2nc3ccccc3s2)sc2c1CC(C)(C)NC2(C)C`, the EC50 is > 80 µM (inactive).

With `Cc1cc(NC(=O)CSc2ccc(-c3nc4cc(C)c(C)cc4[nH]3)cn2)no1`, the EC50 entry was “inactive”.

On to `Nc1nc(Nc2cccc(F)c2)nc2ccccc12`, for which the EC50 entry was “inactive”.

Take `CC1=C(/C=C/C(C)=C/C=C/C(C)=C/C(=O)Nc2ccc(O)cc2)C(C)(C)CCC1`: the EC50 was 8.45 µM.

For the molecule `COc1ccc2cc3c(N)nn(C(=O)C4CCC(C(C)(C)C)CC4)c3nc2c1` (stereo not given), the EC50 is > 80 µM (inactive).

Regarding `CN(C)S(=O)(=O)c1ccc(N2CCCC2)c(C(=O)Nc2nc3ccccc3s2)c1`, the EC50 is 12.7 µM.

For `CCOC(=O)c1nnc(-c2ccccc2)nc1Oc1ccc(Cl)cc1`, the EC50 is 19.6 µM.

On to `CCC(=O)Nc1cccc(C(=O)/C=C/c2ccc(F)cc2)c1`, for which the EC50 is 12.1 µM.

Take `O=C(Cn1c2ccc(F)cc2c2nc3n(c(=O)c21)CCS3)Nc1ccc(Cl)cc1F`: the EC50 was > 80 µM (inactive).

Regarding `N#Cc1ccccc1/C=N/Nc1nc(-c2ccccc2)c2cc(Cl)ccc2n1`, the EC50 is 15.7 µM.

Consider `COc1cc(C(=O)Nc2nc(-c3ccc(Cl)cc3)c(C)s2)ccc1OCC(=O)Nc1ccc(F)cc1`, for which the EC50 is 17.9 µM.

Regarding `Cc1ccc(-c2nnc(-c3ccc(NC(=O)c4cccs4)cc3)o2)cc1`, the EC50 is 12.1 µM.

`Cc1ccc(F)cc1N=Cc1c(O)c2ccccc2oc1=O`: the EC50 was 9.06 µM.

For `O=C(N/N=C/C(Br)=C\c1ccccc1)c1n[nH]c2c1CCC2`, the EC50 result was “inactive”.

Take `O=C1c2ccccc2C(=O)N1/N=C/c1ccc(O)c(O)c1`: the EC50 result was “inactive”.

For the molecule `Cc1nc(NC(=O)c2cc3c(C)nn(-c4ccccc4)c3s2)sc1C(=O)Nc1ccccc1`, the EC50 entry is “inactive”.

With `OC(CNCC1CCCO1)Cn1c2ccc(Br)cc2c2cc(Br)ccc21` (stereo not given), the EC50 was > 80 µM (inactive).

As for `COc1ccccc1N=Cc1c(O)c2ccccc2oc1=O`, the EC50 is 9.23 µM.

On to `CCN(CC)c1ccc(C(=O)OCC(=O)Nc2cc3oc4ccccc4c3cc2OC)cc1`, for which the EC50 was 20 µM.

As to `Cc1ccc(-c2nn(CC(=O)NCc3cc(-c4nn(C)c(=O)c5ccccc45)ccc3C)c(=O)c3ccccc23)cc1`, the half-maximal effective concentration (EC50) was 13.1 µM.

`C#CCn1c(=NC(=O)c2ccc(Cl)s2)sc2cccc(OC)c21`: the EC50 was > 80 µM (inactive).

Regarding `COc1cc(/C=N/NC(N)=O)c(Br)cc1OCC(=O)Nc1ccccc1C`, the EC50 entry is “inactive”.

Consider `Cc1cccc2cc(C(c3nnnn3Cc3ccccc3)N3CCCc4ccccc43)c(=O)[nH]c12` (stereo not given), for which the EC50 entry is “inactive”.

`COc1ccc(C(=O)Nc2cccc(/C=C/c3nc4ccccc4c(=O)[nH]3)c2)cc1`: the EC50 was > 80 µM (inactive).

Turning to `CCCn1c(SCc2nc3sc(C)c(C)c3c(=O)[nH]2)nc2ccccc2c1=O`, the EC50 is > 80 µM (inactive).

On to `CCOC(=O)c1[nH]c2ccc(Cl)cc2c1NC(=O)/C=C/c1ccc2c(c1)OCO2`, for which the EC50 entry is “inactive”.

Regarding `Cc1ccc(-c2[nH]ncc2/C=N/n2c(COc3ccccc3)nc3ccccc3c2=O)cc1`, the EC50 result was “inactive”.

As for `CCOc1ccc(NC(=O)C(Cc2ccccc2)N2C(=O)c3cccc4cccc(c34)C2=O)cc1` (stereo not given), the EC50 is > 80 µM (inactive).

With `Cn1c(Cl)cnc1C1CC(=O)c2cc(Cl)ccc2O1` (stereo not given), the EC50 is 12 µM.

As for `CCCCCCCCCCOC(=O)Cn1c(COc2ccc(Cl)cc2)[n+](C)c2ccccc21`, the EC50 is > 80 µM (inactive).

`CC(C)=CCc1c2c(c3occ(-c4ccc(O)cc4)c(=O)c3c1O)C=CC(C)(C)O2`: the EC50 is 16.6 µM.

As for `COc1cc(/C=N/Nc2nc(Nc3ccccc3)nc(-n3nc(C)cc3C)n2)cc(OC)c1OC`, the EC50 was > 80 µM (inactive).

On to `CCCCCn1c(N)c(-c2nc3ccccc3o2)c2c([N+](=O)[O-])nn(CC)c(=O)c21`, for which the EC50 entry was “inactive”.

On to `Cc1ccc(NC(=O)c2nc[nH]c2C(=O)NCCCNC(=O)c2[nH]cnc2C(=O)Nc2ccc(C)cc2)cc1`, for which the EC50 is > 80 µM (inactive).

As to `COc1ccc(Br)cc1-c1nc2c(c(=O)[nH]c(=O)n2Cc2ccccc2)n1C`, the EC50 was > 80 µM (inactive).

For the molecule `O=Cc1cc2ccccc2nc1SCc1ccc(Cl)cc1`, the EC50 entry is “inactive”.

`COc1ccc2[nH]c3c(c2c1)CCN1C(=O)C(CC(=O)NC/C=C(\C)CCC=C(C)C)C[C@H](C(=O)N(C(C)C)C(C)C)[C@@]31C` (stereo not given in full): the EC50 result is “inactive”.

`Oc1cccc2ccc(/C=C/c3ccc(Br)s3)nc12`: the EC50 result is “inactive”.

Regarding `Cc1cccc(NC(=O)CSc2nc(C)c(CC(=O)c3ccc(Br)cc3)c(C)c2C#N)c1C`, the EC50 was > 80 µM (inactive).

On to `N#Cc1ccccc1NC(=O)COc1c(Br)cc(Br)c2cccnc12`, for which the EC50 entry was “inactive”.

On to `O=[N+]([O-])c1cccc(/C=C/c2ccc3cccc(O)c3n2)c1`, for which the EC50 was > 80 µM (inactive).

Consider `O=C(/C=C/c1cc([N+](=O)[O-])ccc1OC(F)F)Nc1cccc([N+](=O)[O-])c1`, for which the EC50 was > 80 µM (inactive).

Consider `C/C(Cl)=C\Cn1c(O)c(N=NC(N)=S)c2cc(Br)ccc21`, for which the EC50 is 17.3 µM.

Turning to `CCCNC(=O)c1ccc2c(=O)c(O)c(-c3ccc(OC)cc3)[nH]c2c1`, the EC50 is > 80 µM (inactive).

`Cc1ccc(-n2nc3c(N4CCC(C(=O)NCCc5ccccc5C)CC4)nnc(C)c3c2C)cc1`: the EC50 was > 80 µM (inactive).

On to `CCCCCCCCCCn1c2c(c(=N)c3c1CCC3)CCC2`, for which the EC50 is 13.5 µM.

Take `CCOc1cc(/C=C2/NC(=S)NC2=O)ccc1OCc1ccc([N+](=O)[O-])cc1`: the EC50 entry is “inactive”.

Turning to `CCOC(=O)c1c2ccc(OCC(=O)N/N=C/c3ccc(C)cc3)cc2n2ccccc12`, the half-maximal effective concentration (EC50) was 17.3 µM.

As to `COc1ccccc1C(=O)NC(=S)NNC(=O)c1sc2ccccc2c1Cl`, the EC50 result was “inactive”.

Consider `CC(NCC(O)COCCC12CC3CC(CC(C3)C1)C2)c1ccccc1` (stereo not given), for which the EC50 was > 80 µM (inactive).

Take `CN1/C(=C\C(=O)COC(=O)c2ccc(O)c(O)c2)C(C)(C)c2ccccc21`: the EC50 was 6.61 µM.

Turning to `COc1ccc(S(=O)(=O)N2c3cc(Cl)ccc3Oc3nc4ccccc4nc32)cc1`, the EC50 is > 80 µM (inactive).

For `COc1ccc(NC(=O)CSc2nc3ccc(Nc4nc(N5CCOCC5)nc(N5CCOCC5)n4)cc3s2)cc1`, the EC50 is > 80 µM (inactive).

In the case of `COc1cc(NC(=O)c2cccs2)ccc1NC(=O)c1cc2ccccc2o1`, the EC50 was > 80 µM (inactive).

As to `Cc1c(Cl)cccc1Nc1nc(NCCO)c2ccccc2n1`, the EC50 is 17 µM.

For the molecule `COC(=O)c1c(NC(=O)CC2Nc3ccccc3NC2=O)sc(C)c1C` (stereo not given), the EC50 result is “inactive”.

For `COc1ccc(Cn2c(SCc3cc(C)ccc3C)nc3cc(OC)c(OC)cc3c2=N)cc1`, the EC50 was > 80 µM (inactive).

For the molecule `CC1=CC(C)(C)N2C(=O)C(=O)c3cc(OC(=O)c4ccco4)cc1c32`, the EC50 entry is “inactive”.

Consider `CCC[C@@H](CN[C@@H](CNC)[C@H](C)CC)NCC1CCC(C(C)(C)C)CC1` (stereo not given in full), for which the EC50 was 6.95 µM.

As for `Cc1nn(Cc2c(Cl)cccc2Cl)c(C)c1NC(=O)c1cn(-c2ccccc2)nc1-c1ccccc1`, the EC50 is 3.67 µM.

Turning to `CCc1sc2nc(SCC(=O)Nc3cc(C)on3)n(-c3cccc(OC)c3)c(=O)c2c1C`, the EC50 was 15.6 µM.

Consider `Cc1cccc2c1Sc1ccc(Cl)cc1CC2N1CCNCC1` (stereo not given), for which the EC50 was > 80 µM (inactive).

With `COc1ccc(-c2nn(-c3ccccc3)cc2/C=N/N2C(=O)CSC2=S)cc1`, the EC50 was > 80 µM (inactive).

Regarding `Cc1ccc(NC(=O)c2cc(S(=O)(=O)N(C)C)ccc2N2CCCC2)cc1F`, the EC50 result was “inactive”.

On to `O=C(CSCc1ccc(Cl)cc1)Nc1ccc(-c2nnc(-c3ccccc3)o2)cc1`, for which the EC50 was > 80 µM (inactive).

For the molecule `COc1cc(NC(=O)c2cncc(-c3ccc(C#N)cc3)c2)cc(C(=O)Nc2cccc(C(F)(F)F)c2)c1`, the EC50 result was “inactive”.

As for `CCc1cc2c(C)ccc(C)c2nc1SCC(=O)Nc1c[nH]c(=O)[nH]c1=O`, the EC50 is 16.8 µM.

In the case of `Nc1nc(Nc2ccccc2)nc(NC2CCCCC2)c1[N+](=O)[O-]`, the EC50 result is “inactive”.

As to `C=CCN1C(=O)/C(=C2/Sc3ccc(OC)cc3N2C)SC1=Nc1cccc(O)c1`, the EC50 is > 80 µM (inactive).

Take `O=C(COC(=O)/C=C/c1cn(-c2ccccc2)nc1-c1cccnc1)Nc1ccc(Cl)cc1Cl`: the EC50 was 14.3 µM.

As to `COc1cc(/C=C(/C#N)c2nc3ccccc3[nH]2)ccc1OCC(=O)Nc1ccccc1C`, the EC50 is 3.77 µM.

Consider `CCOc1ccc(NC(=S)NC(=O)/C=C/c2ccc(OC)c(OC)c2)c([N+](=O)[O-])c1`, for which the EC50 is > 80 µM (inactive).

In the case of `Clc1ccc(C2=Nn3c(nnc3-c3cc(-c4ccccc4)n[nH]3)SC2)cc1`, the concentration giving a half-maximal response (EC50) was 12.1 µM.

For the molecule `COc1cc(SC#N)ccc1N=Cc1c(C)[nH]n(-c2ccc(C)c(C)c2)c1=O`, the EC50 is 17.4 µM.

As for `Cc1cc(C)c(NC(=O)CSc2nc(COc3ccccc3)nc3ccccc23)c(C)c1`, the EC50 result was “inactive”.

For `C/C(CC(C)(C)C1CCCCC1)=N\NC(N)=S`, the EC50 was 12.1 µM.

`COc1ccc(/C=C/c2nc3cc(-c4ccccc4)ccc3o2)cc1O`: the EC50 is 14.6 µM.

Turning to `COC(=O)c1c(C)oc2ccc(N(C(=O)Oc3ccccc3)S(=O)(=O)c3ccc(Cl)c([N+](=O)[O-])c3)cc12`, the EC50 was 12.5 µM.

`COc1ccc(C(=O)Oc2cc3c4c(c2)C(C)=CC(C)(C)N4C(=O)C3=O)cc1OC`: the EC50 result is “inactive”.

As to `CCOC(=O)c1c(NC(=O)c2cc3n(n2)C(C(F)(F)F)CC(c2cccs2)N3)sc(C)c1C` (stereo not given), the EC50 is 8.7 µM.
